# Experimental data published in US11649218B2, “C-Abl tyrosine kinase inhibitory compound embodiments and methods of making and using the same” (The USA, as represented by the Secretary, Dept. of Health …, priority 2018, dated 2023).
# Tests used:
# [1] = test system: P. falciparum strain NF54 asexual parasites; assay: Asexual stage parasite growth inhibition, SYBR Green assay, 72 hours; assay type: cell-based; details: NF54, 72 hours; for IC50: Plasmodium falciparum
# Experimental: In this example, several of the c-Abl inhibitors were tested in the asexual […] strain of P. falciparum parasites for activity against malaria. […] The pre-diluted parasites were dispensed into a 1536-well plate (2.5 μL/well). […] The fluorescence of each well was measured at 520 nm following excitation at 490 nm using a ViewLux platereader (PerkinElmer).
# Leukemia K562 cell = Leukemia K562 cell proliferation/viability assay (CellTiterGlo, 48 hours); assay type: cell-based; design: unit not given here; details: K562 cells
# Experimental: C-Abl is encoded by the ABL1 gene (NCBI Gene ID NO. 25). […] Assays for determining if a small molecule inhibits c-Abl activity are known. Non-limiting examples include cell proliferation assays using cancer cells that are BCR-Abl positive and depend on BCR-Abl for growth, such as the leukemia cell line K562. […] In some embodiments described herein, compounds are tested for ability to reduce K562 cell proliferation in an HTS adapted assay which measures cell viability using the reagent CellTiterGlo after 48 hours treatment.
# [2] = Pharmacokinetic profile in plasma; assay type: in vivo, mice; details: 12.5 mg/kg IP
# [3] = Pharmacokinetic profile in brain; assay type: in vivo, mice; details: 12.5 mg/kg IP
smiles,measurement,setting,value
"O=C1Nc2cc(OC(F)(F)F)ccc2Oc2ccc(-c3ccnc(N4CCOCC4)c3)cc21 [NCGC00411866, 2-(2-Morpholinopyridin-4-yl)-8-(trifluoromethoxy)dibenzo[b,f][1,4]oxazepin-11(10H)-one]",% Killing,[1],92.9%
same,IC50,[1],9.69 µM
NC(=O)c1cccc(-c2cc(Nc3ccc(OC(F)(F)F)cc3)ncn2)c1 [GNF-2],Efficacy,Leukemia K562 cell,−85.2
same,% Killing,[1],86.0%
same,IC50,[1],1.4 µM
O=C(Nc1ccc(OC(F)(F)Cl)cc1)c1cnc(N2CC[C@@H](O)C2)c(-c2ccn[nH]2)c1 [ABL001],Plasma concentration,[2]; Time 0.167,5.454 µM
same,Plasma concentration,[2]; Time 0.5,9.137 µM
same,Plasma concentration,[2]; Time 1,11.174 µM
same,Plasma concentration,[2]; Time 1.5,10.189 µM
same,Plasma concentration,[2]; Time 2,5.483 µM
same,Plasma concentration,[2]; Time 4,1.628 µM
same,Plasma concentration,[2]; Time 7,0.399 µM
same,Plasma concentration,[2]; Time 24,0.007 µM
same,Brain concentration,[3]; Time 0.167,0.330 µmol/kg
same,Brain concentration,[3]; Time 0.5,0.534 µmol/kg
same,Brain concentration,[3]; Time 1,0.597 µmol/kg
same,Brain concentration,[3]; Time 1.5,0.442 µmol/kg
same,Brain concentration,[3]; Time 2,0.336 µmol/kg
same,Brain concentration,[3]; Time 4,0.119 µmol/kg
same,Brain concentration,[3]; Time 7,0.056 µmol/kg
same,Brain concentration,[3]; Time 24,0.003 µmol/kg
"O=C1Nc2cc(OC(F)(F)F)ccc2Oc2ccc(-c3cccc(S(=O)(=O)NCCO)c3)cc21 [NCGC00373064, N-(2-Hydroxyethyl)-3-(11-oxo-8-(trifluoromethoxy)-10,11-dihydrodibenzo[b,f][1,4]oxazepin-2-yl)benzenesulfonamide]",Efficacy,Leukemia K562 cell,−103.3
"CC(C)(CO)n1cc(-c2ccc3c(c2)C(=O)Nc2cc(OC(F)(F)F)ccc2O3)cn1 [NCGC00387295, 2-(1-(Hydroxy-2-methylpropan-2-yl)-1H-pyrazol-4-yl)-8-(trifluoromethoxy)dibenzo[b,f][1,4]oxazepin-11(10H)-one]",Efficacy,Leukemia K562 cell,−87.7
"NC(=O)c1cccc(-c2ccc3c(c2)C(=O)Nc2cc(OC(F)(F)F)ccc2N3)c1 [NCGC00354777, 3-(11-Oxo-8-(trifluoromethoxy)-10,11-dihydro-5H-dibenzo[b,e][1,4]diazepin-2-yl)benzamide]",Efficacy,Leukemia K562 cell,−95.9
"CC(=O)c1csc(-c2ccc3c(c2)C(=O)Nc2cc(OC(F)(F)F)ccc2O3)c1 [NCGC00388580, 2-(4-Acetylthiophen-2-yl)-8-(trifluoromethoxy)dibenzo[b,f][1,4]oxazepin-11(10H)-one]",Efficacy,Leukemia K562 cell,−92.6
"O=C1Nc2cc(OC(F)(F)F)ccc2Nc2ccc(-c3cccc(C(=O)N4CCNCC4)c3)cc21 [NCGC00355569, 2-(3-(Piperazine-1-carbonyl)phenyl)-8-(trifluoromethoxy)-5,10-dihydro-11H-dibenzo[b,e][1,4]diazepin-11-one]",Efficacy,Leukemia K562 cell,−97.3
"CN1CCN(c2cc(-c3ccc4c(c3)C(=O)Nc3cc(OC(F)(F)F)ccc3O4)ccn2)CC1 [NCGC00373063, 2-(2-(4-Methylpiperazin-1-yl)pyridin-4-yl)-8-(trifluoromethoxy)dibenzo[b,f][1,4]oxazepin-11(10H)-one]",Efficacy,Leukemia K562 cell,−107.9
"O=C1Nc2cc(OC(F)(F)F)ccc2Oc2ccc(-c3cccc(-c4nn[nH]n4)c3)cc21 [NCGC00420743, 2-(3-(2H-Tetrazol-5-yl)phenyl)-8-(trifluoromethoxy)dibenzo[b,f][1,4]oxazepin-11(10H)-one]",Efficacy,Leukemia K562 cell,0.0
"Nc1cc(-c2ccc3c(c2)C(=O)Nc2cc(OC(F)(F)F)ccc2O3)ccn1 [NCGC00373061, 2-(2-Aminopyridin-4-yl)-8-(trifluoromethoxy)dibenzo[b,f][1,4]oxazepin-11(10H)-one]",Efficacy,Leukemia K562 cell,−87.0
"NS(=O)(=O)c1cccc(-c2ccc3c(c2)C(=O)Nc2cc(OC(F)(F)F)ccc2O3)c1 [NCGC00371364, 3-(11-Oxo-8-(trifluoromethoxy)-10,11-dihydrodibenzo[b,f][1,4]oxazepin-2-yl)benzenesulfonamide]",Efficacy,Leukemia K562 cell,−94.9
O=C(O)c1ccc2c(c1)C(=O)Nc1cc(OC(F)(F)F)ccc1O2 [NCGC00387752],Efficacy,Leukemia K562 cell,0.0
O=C(NCCO)c1cccc(-c2cc(Nc3ccc(OC(F)(F)F)cc3)ncn2)c1 [GNF-5],Efficacy,Leukemia K562 cell,−85.8
"NCc1ccc(-c2ccc3c(c2)C(=O)Nc2cc(OC(F)(F)F)ccc2O3)s1 [NCGC00388547, 2-(5-(Aminomethyl)thiophen-2-yl)-8-(trifluoromethoxy)dibenzo[b,f][1,4]oxazepin-11(10H)-one]",Efficacy,Leukemia K562 cell,−91.7
"O=C1Nc2cc(OCCC(F)(F)F)ccc2Oc2ccc(-c3ccnc(N4CCOCC4)c3)cc21 [NCGC00481507, 2-(2-Morpholinopyridin-4-yl)-8-(3,3,3-trifluoropropoxy)dibenzo[b,f][1,4]oxazepin-11(10H)-one]",Efficacy,Leukemia K562 cell,−85.5
CN1C(=O)c2ccc(-c3cccc(NS(C)(=O)=O)c3)cc2Oc2ccc(OC(F)(F)F)cc21 [NCGC00384234],Efficacy,Leukemia K562 cell,−54.1
"CN(C)CCn1cc(-c2ccc3c(c2)C(=O)Nc2cc(OC(F)(F)F)ccc2O3)cn1 [NCGC00387297, 2-(1-(2-(Dimethylamino)ethyl)-1H-pyrazol-4-yl)-8-(trifluoromethoxy)dibenzo[b,f][1,4]oxazepin-11(10H)-one]",Efficacy,Leukemia K562 cell,−115.7
